Source: ChEMBL document CHEMBL4507302, “Data for DCP probe TP-020” (2021)
Calls of active or inactive are those of the source.

Assays:
[1] = biological target: Serine/threonine-protein kinase SIK1 (Homo sapiens) (UniProt P57059); conditions: Compound concentration 1000.0 nM
[2] = biological target: Protein kinase C iota type (Homo sapiens) (UniProt P41743); conditions: Compound concentration 1000.0 nM
[3] = biological target: Beta-3 adrenergic receptor (Homo sapiens) (UniProt P13945); conditions: Compound concentration 10.0 uM
[4] = biological target: 5-hydroxytryptamine receptor 1A (Homo sapiens) (UniProt P08908); conditions: Compound concentration 10.0 uM
[5] = biological target: Phosphatidylinositol 3-kinase C2 domain-containing subunit gamma (Homo sapiens) (UniProt O75747); conditions: Compound concentration 1000.0 nM
Chain of Phosphatidylinositol 3-kinase C2 domain-containing subunit gamma (Homo sapiens) (O75747 whole entry, the tested form may be a part): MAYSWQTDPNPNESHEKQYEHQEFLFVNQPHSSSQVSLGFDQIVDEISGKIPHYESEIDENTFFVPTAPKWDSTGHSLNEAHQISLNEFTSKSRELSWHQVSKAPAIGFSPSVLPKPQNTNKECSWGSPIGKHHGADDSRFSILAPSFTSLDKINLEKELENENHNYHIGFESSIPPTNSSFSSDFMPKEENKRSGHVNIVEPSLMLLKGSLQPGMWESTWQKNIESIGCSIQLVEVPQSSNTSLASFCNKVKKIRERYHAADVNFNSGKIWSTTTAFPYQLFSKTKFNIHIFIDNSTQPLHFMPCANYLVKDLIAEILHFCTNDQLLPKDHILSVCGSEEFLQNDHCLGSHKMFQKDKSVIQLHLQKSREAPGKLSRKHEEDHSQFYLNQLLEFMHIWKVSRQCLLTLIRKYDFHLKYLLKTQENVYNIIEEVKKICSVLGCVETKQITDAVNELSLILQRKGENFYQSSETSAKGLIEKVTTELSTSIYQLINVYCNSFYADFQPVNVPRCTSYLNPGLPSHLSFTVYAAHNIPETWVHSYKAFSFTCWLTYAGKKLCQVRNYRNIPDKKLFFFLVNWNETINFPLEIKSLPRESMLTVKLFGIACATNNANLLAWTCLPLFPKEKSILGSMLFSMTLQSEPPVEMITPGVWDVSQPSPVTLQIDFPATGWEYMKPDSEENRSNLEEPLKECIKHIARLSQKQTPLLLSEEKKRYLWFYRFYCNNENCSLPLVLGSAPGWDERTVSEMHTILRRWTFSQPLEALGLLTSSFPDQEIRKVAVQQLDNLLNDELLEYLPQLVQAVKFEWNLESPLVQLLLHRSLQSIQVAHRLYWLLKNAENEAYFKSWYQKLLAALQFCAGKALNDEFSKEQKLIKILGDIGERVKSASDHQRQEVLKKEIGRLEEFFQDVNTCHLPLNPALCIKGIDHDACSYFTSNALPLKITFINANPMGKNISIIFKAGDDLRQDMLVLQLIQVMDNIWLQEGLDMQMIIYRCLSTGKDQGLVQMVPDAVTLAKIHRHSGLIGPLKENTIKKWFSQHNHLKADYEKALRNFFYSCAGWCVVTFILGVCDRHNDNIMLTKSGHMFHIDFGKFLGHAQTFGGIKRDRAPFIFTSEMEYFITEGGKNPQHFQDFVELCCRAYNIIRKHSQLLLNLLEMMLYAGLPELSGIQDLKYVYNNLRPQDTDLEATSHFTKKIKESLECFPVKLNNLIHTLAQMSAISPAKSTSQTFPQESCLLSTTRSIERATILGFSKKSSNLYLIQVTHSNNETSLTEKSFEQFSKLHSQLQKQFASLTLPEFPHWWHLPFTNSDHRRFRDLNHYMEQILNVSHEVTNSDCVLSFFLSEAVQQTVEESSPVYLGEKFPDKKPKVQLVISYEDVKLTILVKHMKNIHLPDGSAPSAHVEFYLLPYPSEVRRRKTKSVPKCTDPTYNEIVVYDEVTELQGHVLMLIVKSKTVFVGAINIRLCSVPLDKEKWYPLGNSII

[6] = biological target: Muscarinic acetylcholine receptor M1 (Homo sapiens) (UniProt P11229); conditions: Compound concentration 10.0 uM
[7] = biological target: Interleukin-1 receptor-associated kinase 1 (Homo sapiens) (UniProt P51617); conditions: Compound concentration 1000.0 nM
Chain of Interleukin-1 receptor-associated kinase 1 (Homo sapiens) (P51617 whole entry, looked up): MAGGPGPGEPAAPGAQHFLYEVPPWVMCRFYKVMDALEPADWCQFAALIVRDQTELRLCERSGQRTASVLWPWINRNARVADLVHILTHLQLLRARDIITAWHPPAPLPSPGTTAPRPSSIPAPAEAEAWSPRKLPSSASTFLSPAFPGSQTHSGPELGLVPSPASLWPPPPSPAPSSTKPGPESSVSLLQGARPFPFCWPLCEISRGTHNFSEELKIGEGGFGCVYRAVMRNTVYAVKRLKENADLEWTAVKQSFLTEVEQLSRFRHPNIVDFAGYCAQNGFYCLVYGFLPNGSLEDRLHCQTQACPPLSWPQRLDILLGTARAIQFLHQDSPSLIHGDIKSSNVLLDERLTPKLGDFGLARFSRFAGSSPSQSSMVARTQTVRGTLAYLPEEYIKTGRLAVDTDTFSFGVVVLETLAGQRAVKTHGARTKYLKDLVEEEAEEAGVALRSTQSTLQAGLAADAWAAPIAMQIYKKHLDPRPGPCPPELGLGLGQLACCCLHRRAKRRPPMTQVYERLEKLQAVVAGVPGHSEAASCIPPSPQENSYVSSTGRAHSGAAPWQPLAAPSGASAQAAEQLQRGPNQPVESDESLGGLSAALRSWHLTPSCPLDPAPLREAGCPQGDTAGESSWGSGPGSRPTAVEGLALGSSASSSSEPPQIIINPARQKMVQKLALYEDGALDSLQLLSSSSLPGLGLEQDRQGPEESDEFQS

[8] = biological target: Muscarinic acetylcholine receptor M2 (Homo sapiens) (UniProt P08172); conditions: Compound concentration 10.0 uM
[9] = biological target: Beta-1 adrenergic receptor (Homo sapiens) (UniProt P08588); conditions: Compound concentration 10.0 uM
[10] = biological target: GABA-A receptor; anion channel (Rattus norvegicus) (UniProt O09028+P15431+P18506+P18508+P19969+P20236+P23574+P23576+P28471+P28473+P30191+P62813+P63079+P63138+Q91ZM7+Q9ES14); conditions: Compound concentration 10.0 uM
[11] = biological target: Ribosomal protein S6 kinase alpha-4 (Homo sapiens) (UniProt O75676); conditions: Compound concentration 1000.0 nM
Chain of Ribosomal protein S6 kinase alpha-4 (Homo sapiens) (O75676 whole entry, looked up): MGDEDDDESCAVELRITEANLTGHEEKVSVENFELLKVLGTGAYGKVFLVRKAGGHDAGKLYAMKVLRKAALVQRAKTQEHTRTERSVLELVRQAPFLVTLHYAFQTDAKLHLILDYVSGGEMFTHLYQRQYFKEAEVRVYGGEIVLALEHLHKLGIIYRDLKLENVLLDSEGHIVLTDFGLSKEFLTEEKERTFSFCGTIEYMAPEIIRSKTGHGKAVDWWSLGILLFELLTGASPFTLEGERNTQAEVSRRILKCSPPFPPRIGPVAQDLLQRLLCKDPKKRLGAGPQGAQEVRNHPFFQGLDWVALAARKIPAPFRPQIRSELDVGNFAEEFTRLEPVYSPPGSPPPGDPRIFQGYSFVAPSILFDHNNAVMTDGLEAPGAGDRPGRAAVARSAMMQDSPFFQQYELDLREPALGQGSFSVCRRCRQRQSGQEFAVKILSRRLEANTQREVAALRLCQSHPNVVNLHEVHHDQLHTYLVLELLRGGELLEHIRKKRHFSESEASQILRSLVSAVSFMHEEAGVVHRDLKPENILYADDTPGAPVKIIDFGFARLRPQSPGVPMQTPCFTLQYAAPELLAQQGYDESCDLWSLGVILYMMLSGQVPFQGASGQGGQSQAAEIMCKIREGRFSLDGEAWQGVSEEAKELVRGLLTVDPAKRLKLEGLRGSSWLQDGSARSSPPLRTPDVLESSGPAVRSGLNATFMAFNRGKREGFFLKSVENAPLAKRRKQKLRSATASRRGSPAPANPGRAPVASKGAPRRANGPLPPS

[12] = biological target: Mogat2 (Mus musculus); assay: RapidFire/MS assay (mouse MGAT2)
[13] = biological target: 5-hydroxytryptamine receptor 1D (Homo sapiens, UniProt P28221); assay: GPCRScan assay: inhibition of 5-HT1D; set-up: radioligand conc. used [nm] 1.0 – 2.0, parental cells HEKT
Chain of 5-hydroxytryptamine receptor 1D (P28221 whole entry): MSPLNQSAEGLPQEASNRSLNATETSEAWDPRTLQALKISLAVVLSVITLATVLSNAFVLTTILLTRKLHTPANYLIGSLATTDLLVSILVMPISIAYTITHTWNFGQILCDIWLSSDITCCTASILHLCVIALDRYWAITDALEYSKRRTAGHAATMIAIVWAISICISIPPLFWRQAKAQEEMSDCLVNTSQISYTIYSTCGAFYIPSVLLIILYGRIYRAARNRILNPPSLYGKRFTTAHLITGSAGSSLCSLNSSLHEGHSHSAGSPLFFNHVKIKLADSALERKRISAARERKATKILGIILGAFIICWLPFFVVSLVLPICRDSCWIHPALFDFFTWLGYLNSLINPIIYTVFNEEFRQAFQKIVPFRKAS

[14] = biological target: Diacylglycerol O-acyltransferase 1 (Homo sapiens, UniProt O75907); assay: Thin Layer Chromatography (TLC) assay (human DGAT1)
[15] = biological target: Sigma non-opioid intracellular receptor 1 (Homo sapiens) (UniProt Q99720); conditions: Compound concentration 10.0 uM
[16] = biological target: Alpha-2A adrenergic receptor (Homo sapiens) (UniProt P08913); conditions: Compound concentration 10.0 uM
[17] = biological target: Sigma intracellular receptor 2 (Homo sapiens, UniProt Q5BJF2); assay: GPCRScan assay: inhibition of Sigma 2; set-up: radioligand conc. used [nm] 5.0, parental cells HEKT
[18] = biological target: Alpha-2C adrenergic receptor (Homo sapiens) (UniProt P18825); conditions: Compound concentration 10.0 uM
[19] = biological target: 5-hydroxytryptamine receptor 6 (Homo sapiens) (UniProt P50406); conditions: Compound concentration 10.0 uM
[20] = biological target: Diacylglycerol O-acyltransferase 2 (Homo sapiens, UniProt Q96PD7); assay: Thin Layer Chromatography (TLC) assay (human DGAT2)
[21] = biological target: Alpha-1A adrenergic receptor (Homo sapiens) (UniProt P35348); conditions: Compound concentration 10.0 uM
[22] = biological target: Muscarinic acetylcholine receptor M3 (Homo sapiens) (UniProt P20309); conditions: Compound concentration 10.0 uM
[23] = biological target: 5-hydroxytryptamine receptor 2C (Homo sapiens) (UniProt P28335); conditions: Compound concentration 10.0 uM
[24] = biological target: Diacylglycerol O-acyltransferase 2-like protein MOGAT2 (Homo sapiens) (UniProt Q3SYC2); assay: RapidFire/MS assay (human MGAT2)
Chain of Diacylglycerol O-acyltransferase 2-like protein MOGAT2 (Homo sapiens) (Q3SYC2 whole entry, looked up): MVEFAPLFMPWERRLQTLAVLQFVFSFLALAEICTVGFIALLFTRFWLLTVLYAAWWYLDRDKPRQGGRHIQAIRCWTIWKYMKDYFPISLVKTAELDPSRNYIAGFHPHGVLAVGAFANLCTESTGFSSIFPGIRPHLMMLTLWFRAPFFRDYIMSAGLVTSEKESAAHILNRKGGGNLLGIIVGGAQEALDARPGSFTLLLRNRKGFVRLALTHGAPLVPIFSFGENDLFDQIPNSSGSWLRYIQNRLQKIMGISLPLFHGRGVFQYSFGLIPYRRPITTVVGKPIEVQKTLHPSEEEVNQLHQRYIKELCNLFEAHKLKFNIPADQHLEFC

Chain of Serine/threonine-protein kinase SIK1 (Homo sapiens) (P57059 whole entry): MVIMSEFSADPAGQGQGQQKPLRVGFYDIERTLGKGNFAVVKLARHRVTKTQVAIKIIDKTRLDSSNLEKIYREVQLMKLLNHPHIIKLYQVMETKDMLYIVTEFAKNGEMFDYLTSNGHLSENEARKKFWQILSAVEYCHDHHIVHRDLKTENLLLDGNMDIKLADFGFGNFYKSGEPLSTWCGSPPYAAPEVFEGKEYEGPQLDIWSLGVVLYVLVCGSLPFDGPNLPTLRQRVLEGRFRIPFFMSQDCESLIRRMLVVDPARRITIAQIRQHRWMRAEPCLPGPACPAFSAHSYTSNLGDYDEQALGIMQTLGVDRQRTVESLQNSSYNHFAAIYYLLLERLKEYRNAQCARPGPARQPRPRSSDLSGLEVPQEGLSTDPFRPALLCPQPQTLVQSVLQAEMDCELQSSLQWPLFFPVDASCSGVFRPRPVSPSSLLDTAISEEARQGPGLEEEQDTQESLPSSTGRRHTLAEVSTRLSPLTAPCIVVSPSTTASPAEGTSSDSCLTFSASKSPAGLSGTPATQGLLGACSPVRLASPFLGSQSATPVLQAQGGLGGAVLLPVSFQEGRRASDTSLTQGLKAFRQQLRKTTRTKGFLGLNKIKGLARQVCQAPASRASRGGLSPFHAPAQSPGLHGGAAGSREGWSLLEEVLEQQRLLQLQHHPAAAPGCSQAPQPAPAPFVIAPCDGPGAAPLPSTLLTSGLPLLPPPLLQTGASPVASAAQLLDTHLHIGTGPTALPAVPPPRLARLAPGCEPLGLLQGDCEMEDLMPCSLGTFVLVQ
Chain of Protein kinase C iota type (Homo sapiens) (P41743 whole entry): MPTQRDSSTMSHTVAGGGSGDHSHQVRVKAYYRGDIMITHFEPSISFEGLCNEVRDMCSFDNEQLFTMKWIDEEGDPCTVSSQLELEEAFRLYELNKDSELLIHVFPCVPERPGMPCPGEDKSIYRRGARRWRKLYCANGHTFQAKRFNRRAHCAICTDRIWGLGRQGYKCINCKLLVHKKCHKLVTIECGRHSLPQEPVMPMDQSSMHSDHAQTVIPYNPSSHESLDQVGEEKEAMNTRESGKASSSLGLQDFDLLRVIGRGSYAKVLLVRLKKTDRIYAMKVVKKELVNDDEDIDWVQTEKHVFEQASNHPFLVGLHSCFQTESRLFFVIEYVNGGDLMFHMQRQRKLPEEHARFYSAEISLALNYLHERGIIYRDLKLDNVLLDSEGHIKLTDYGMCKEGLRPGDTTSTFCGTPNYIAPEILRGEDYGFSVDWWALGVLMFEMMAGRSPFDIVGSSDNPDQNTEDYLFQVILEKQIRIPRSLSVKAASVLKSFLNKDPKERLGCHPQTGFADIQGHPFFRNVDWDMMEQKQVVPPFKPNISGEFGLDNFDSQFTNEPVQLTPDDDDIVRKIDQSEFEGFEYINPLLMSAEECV

Nc1cnc(N2CCc3cc(S(=O)(=O)Nc4c(F)cc(Cl)cc4F)cc(N4CCCC4=O)c32)nc1
inactive: residual activity [1] 100% | residual activity [2] 100% | inhibition [3] -2.69% | inhibition [4] 4.45% | residual activity [5] 78% | inhibition [6] -9.48% | residual activity [7] 100% | inhibition [8] 3.7% | inhibition [9] 8.84% | inhibition [10] -1.96% | residual activity [11] 96%

Cn1nc(C(F)(F)F)cc1-c1cnc(N2CCc3cc(S(=O)(=O)Nc4c(F)cc(Cl)cc4F)cc(N4CCCC4=O)c32)nc1 [TP-020]
4.57 µM: Ki ([13]; read-out: pKi (converted))
inactive: residual activity [1] 100% | residual activity [2] 94% | inhibition [15] 12.8% | inhibition [16] -9.1% | residual activity [5] 94% | inhibition [18] 17.9% | inhibition [19] 6.67% | inhibition [21] 6.96% | residual activity [7] 72% | inhibition [22] 7.26% | inhibition [23] 31% | inhibition [10] 35.9% | residual activity [11] 85%
> 30 µM (not active): IC50 [14] | IC50 [20]
active: IC50 [12] 0.0024 µM | IC50 [24] 0.0078 µM
10 µM: Ki [17]
4.66 µM: Ki ([13]; read-out: Ki)
